From US10632171B2, “Melanocortin receptor-specific peptides” (Palatin Technologies, Inc., priority 2009, dated 2020)
Peptide text beside a SMILES is read from it.

Assays:
hMC4-R [1] = target: T1, hMC4-R (Homo sapiens (Human), UniProt P32245); assay: Competitive inhibition binding assay using [I125]-NDP-α-MSH; conditions: averaged; determined using [I125]-NDP-α-MSH (values not marked *); read-out: MC4-R Ki
Description: A competitive inhibition binding assay is performed using membrane homogenates prepared from HEK-293 cells that express recombinant hMC4-R, hMC3-R, or hMC5-R, and from B-16 mouse melanoma cells (containing endogenous MC1-R). In some instances, HEK-293 cells that express recombinant hMC1-R were employed. In the examples that follow, all MC3-R, MC4-R and MC5-R values are for human recombinant receptors. […] Membrane homogenates were incubated with 0.2 nM (for hMC4-R) 0.4 nM (for MC3-R and MC5-R) or 0.1 nM (for mouse B16 MC1-R or hMC1-R) [I^125]-NDP-α-MSH (Perkin Elmer) and increasing concentrations of test peptides of the present invention in buffer containing 25 mM HEPES buffer (pH 7.5) with 100 mM NaCl, 2 mM CaCl2, 2 mM MgCl2, 0.3 mM 1,10-phenanthroline, and 0.2% bovine serum albumin. After incubation for 60 minutes at 37° C., the assay mixture was filtered and the membranes washed three times with ice-cold buffer. Filters were dried and counted in a gamma counter for bound radioactivity. […] Maximal specific binding (100%) was defined as the difference in radioactivity (cpm) bound to cell membranes in the absence and presence of 1 μM NDP-α-MSH. […] Each assay was conducted in triplicate and the actual mean values are described, with results less than 0% reported as 0%. Ki values for test peptides of the present invention were determined using Graph-Pad Prism® curve-fitting software.

hMC4-R [2] = target: T1, hMC4-R; assay: Competitive binding assay using Eu-NDP-α-MSH; conditions: averaged; determined using Eu-NDP-α-MSH (values marked *); read-out: MC4-R Ki
Description: Alternatively, a competitive inhibition binding assay was performed employing Eu-NDP-α-MSH (PerkinElmer Life Sciences catalog No. AD0225) with determination by time-resolved fluorometry (TRF) of the lanthanide chelate. […] After incubation for 90 minutes at 37° C., the reaction was stopped by filtration over AcroWell 96-well filter plates (Pall Life Sciences). The filter plates were washed 4 times with 200 μL of ice-cold phosphate-buffered saline. DELFIA Enhancement solution (PerkinElmer Life Sciences) was added to each well. […] Each assay was conducted in duplicate and mean values were utilized. Ki values were determined by curve-fitting with Graph-Pad Prism® software using a one-site fixed-slope competition binding model.

T1 sequence (P32245 whole entry): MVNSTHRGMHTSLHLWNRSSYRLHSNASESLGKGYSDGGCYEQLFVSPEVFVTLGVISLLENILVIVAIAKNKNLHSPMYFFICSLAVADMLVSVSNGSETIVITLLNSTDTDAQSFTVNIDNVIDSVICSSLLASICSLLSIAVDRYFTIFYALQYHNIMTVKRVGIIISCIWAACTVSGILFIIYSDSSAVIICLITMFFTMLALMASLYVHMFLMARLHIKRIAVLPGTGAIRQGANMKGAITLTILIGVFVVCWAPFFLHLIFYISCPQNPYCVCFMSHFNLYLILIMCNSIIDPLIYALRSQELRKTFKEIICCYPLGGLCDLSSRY

| Ki (hMC4-R [1]) [nM] | Ki (hMC4-R [2]) [nM] | Compound |
| --- | --- | --- |
| 873 |  | CC(=O)N[C@@H](CCCNC(=N)N)C(=O)N[C@H]1CC(=O)NCCCC[C@@H](C(N)=O)NC(=O)[C@H](Cc2c[nH]c3ccccc23)NC(=O)[C@H](CCCNC(N)=O)NC(=O)[C@@H](Cc2ccccc2)NC(=O)[C@H](CCCCN)NC1=O [compound 116, Ac-Arg-cyclo(Asp-Lys- D-Phe-Cit-Trp-Lys)-NH2] (HELM PEPTIDE1{[ac].R.D.K.[dF].[Cit].W.K.[am]}$PEPTIDE1,PEPTIDE1,3:R3-8:R3$$$V2.0) |
| 3 |  | CC(=O)N[C@@H](CCCNC(=N)N)C(=O)N[C@H]1CC(=O)NCCCC[C@@H](C(N)=O)NC(=O)[C@H](Cc2c[nH]c3ccccc23)NC(=O)[C@H](CCCNC(=N)N)NC(=O)[C@@H](Cc2ccccc2)NC(=O)[C@@H]2C[C@@H](O)CN2C1=O [compound 101, Ac-Arg-cyclo(Glu-Hyp- D-Phe-Arg-Trp-Orn)- NH2] |
|  | 144 | CC(=O)N[C@@H](CCCNC(=N)N)C(=O)N[C@H]1CC(=O)NCCCC[C@@H](C(=O)O)NC(=O)[C@H](Cc2c[nH]c3ccccc23)NC(=O)[C@H](CCCNC(=N)N)NC(=O)[C@@H](Cc2ccccc2)NC(=O)[C@H](C)NC1=O [compound 52, Ac-Arg-cyclo(Asp-Ala- D-Phe-Arg-Trp-Lys)-OH] (HELM PEPTIDE1{[ac].R.D.A.[dF].R.W.K}$PEPTIDE1,PEPTIDE1,3:R3-8:R3$$$V2.0) |
